Assay results as given in patent US20070026465A1, “Method for detecting GAD65 autoreactive T cells newly diagnosed type1 diabetic patients and in the prediabetic period” (priority 2005, published 2007).
Values joined by “and” are separate entries in the source; they are usually repeats but may differ in a detail not shown here. Equal values may be shown once.

Columns and labels:
Format in all cases: cell-based, human
[1] = system: PBMC of newly diagnosed T1D patients; experiment: GAD65 HLA class I tetramer staining and flow cytometry of stimulated PBMC, T1D patients; parameters: % CD3+/CD8+/GAD65 reactive T cells, average / % CD3+/CD8+/GAD65 reactive T cells: concentration or dose not given beside the values
[2] = system: PBMC of newly-diagnosed T1D patients; experiment: T cell activation (CD69 staining) in stimulated PBMC, T1D patients; details: GAD65 peptide treated PBMC, day 6;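 also: GAD65 peptide 10 to 30 µg/ml in culture medium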
Description: (§1) PBMC were separated from 5-10 ml heparinized peripheral blood by Ficoll gradient centrifugation (Histopaque, Sigma-Aldrich, St. Luis, Mo., USA). […] This washing step was introduced in the method to remove the GAD65 peptide and therefore reduce the risk of aspecificities in the subsequent procedure of tetramer binding. […] Cells were then harvested and processed for tetramer staining and flow cytometric analysis.
(§2) On day 4 or day 6 from the beginning of culture, 1×10^6 cells were allocated for staining. They were washed by centrifugation at 1500 rpm for 5 min at room temperature in wash buffer [0.1% sodium azide, 2% FBS in PBS] then resuspended in the residual volume (approximately 50 μl). 1 μl of phycoerythrin (PE) labelled GAD65 tetramer was added and incubated in ice for 30^+ min in the dark. […] Cells were then washed twice in phosphate buffer and their staining achieved using a Beckton Dickinson FACSCalibur flow cytometer and analysed with the CellQuest software program. T cell activation was evaluated by staining cells with […] in different multiple staining experiments. […]

[3] = system: CD8+/GAD65 reactive lymphocytes of a T1D patient; experiment: Early-late apoptosis (Annexin V / propidium iodide) in peptide stimulated PBMC
Description: At day 4 and day 6 from the beginning of the culture, 1×10^6 cells stimulated with the GAD65 peptide according to the above mentioned protocols were washed in the same washing phosphate buffer as described above and resuspended in the residual volume of approximately 50 μl. 1 μl PE-labelled GAD65 tetramer was used per staining procedure. Cells were then incubated with biotinylated anti-human CD8 MoAb (1:10 dilution, Becton Dickinson) in ice, for at least 30 min, in the dark. They were then washed with washing buffer by centrifugation at 1500 rpm for 5 min at room temperature. 5 μl of streptavidin-(Cy5) conjugate was then added for 30 min at room temperature, in the dark. Cells were then washed in ice cold PBS (2% FBS) by centrifugation at 1500 rpm for 5 min at room temperature. Cell pellet was then suspended in 500 μl of phosphate buffer. 10 μl of cold media binding reagent (Calbiochem, San Diego, Calif., USA) and 1.25 μl of Annexin V-FITC conjugate (Calbiochem) were added according to manufacturer's instructions. […] Staining was then immediately achieved and analysed by flow cytometry. […] Cells were evaluated as necrotic when stained with propidium iodide but negative for Annexin V, cells were evaluated as late apoptotic when propidium iodide positive and binding Annexin V, early apoptotic when propidium iodide negative and Annexin V positive and viable when negative for both stainings.

[4] = system: PBMC of healthy control individuals; experiment: GAD65 HLA class I tetramer staining and flow cytometry of stimulated PBMC, healthy controls; parameters: % CD3+/CD8+/GAD65 reactive T cells, average / % CD3+/CD8+/GAD65 reactive T cells: concentration or dose not given beside the values
[5] = system: PBMC of healthy normal controls; experiment: T cell activation (CD69 staining) in stimulated PBMC, healthy controls; details: GAD65 peptide treated PBMC, day 6;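 also: GAD65 peptide 10 to 30 µg/ml in culture medium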
Description: as §1, §2

In the case of VMNILLQYV [GAD65 peptide], the “% CD3+/CD8+/GAD65 reactive T cells, average” value ([1]; GAD65 treated PBMC, average of 22 T1D patients, day 6) is reported as 30.0%, the “% CD3+/CD8+/GAD65 reactive T cells” value ([1]; GAD65 treated PBMC, individual T1D patients, day 6 of culture) is reported as 73% and 17% and 12.5% and 14.08% and 1% (2×) and 19% and 98% and 85% and 68% and 22% and 70% and 82% and 21% and 1.35% and 2.64% and 0.81% and 3.19% and 58% and 2.59% and 2.28% and 6.39% and the “Dot Plot pattern of CD8 expression of CD8+ GAD65 reactive T cells” value ([1]; T1D patients after GAD65 peptide stimulation, not seen in normal controls) is reported as “peculiar pattern of low CD8 expression”. For the same sequence, the “percentage of CD3+/CD8+/GAD65 reactive T cells compared to IL-2 stimulation” value ([1]; one T1D patient non-responding at day 6, 2 days peptide then 2 days IL-2, analysis at day 4 (FIG. 8)) was “significant increase”, the “% CD69/CD3/CD8 positive T cells, average” value ([2]; average of T1D patients) was 18.9% and the “% CD69/CD3/CD8 positive T cells” value ([2]; individual T1D patients) was 13.5% and 10.94% and 24% and 39% and 28% (2×) and 42% and 18% and 4.63% and 1.5% and 3.2% and 20% and 9.87% and 22%. The “apoptosis (Annexin V) of CD8+/GAD65 reactive lymphocytes” value ([3]; T1D patient, day 4 of culture with the GAD65 peptide (FIG. 9 E-F)) was “shows signs of apoptosis”, the “population of Annexin V positive cells” value ([3]; same samples, day 6 of GAD65 peptide treatment (FIG. 10)) was “no longer detectable” and the “increase of the population of CD3+/CD8+/GAD65 reactive T cells (specificity of the response)” value [4] was “no significant increase”. For the same sequence, the “% CD3+/CD8+/GAD65 reactive T cells, average” value ([4]; GAD65-treated PBMC, average of 22 normal controls, day 6) was 0.9%, the “% CD3+/CD8+/GAD65 reactive T cells” value ([4]; GAD65-treated PBMC, individual normal controls, day 6 of culture) was 0.37% and 0.42% and 2% and 0.09% and 0.97% and 0.6% and 8% and 1.21% and 0.25% and 0.9% and 1.03% and 0.49% and 0.23% (2×) and 0.03% and 0.21% and 0.11% and 0.13% and 0.14% and 0.17% and 0.86% and 0.57% and the “percentage of CD8+/GAD65 reactive lymphocytes” value ([4]; healthy control donor, day 4, after GAD65 peptide stimulation (FIG. 9 B-C)) was “very low”. For the same sequence, the “% CD69+/CD3+/CD8+ T cells, average” value ([5]; average of normal controls) was 12.9% and the “% CD69+/CD3+/CD8+ T cells” value ([5]; individual normal controls) was 2.1% and 0.75% and 13.51% and 17% and 26% and 13.4% and 18% (2×) and 19% and 1.7%.
